# Experimental data reported in patent publication US10765114B2, “4-amino-6-(pyridyl and 2-substitutedphenyl)-picolinates and 6-amino-2-(pyridyl and 2-substitutedphenyl)-pyrimidine-4-carboxylates and their use as herbicides” (Dow AgroSciences LLC, priority 2013, dated 2020).
# System: Key Grass and Sedge Weeds as well as Grass Crops
# Test: Post-Emergent Test II (Table 6)
# Type: in vivo
# Conditions: ZEAMX: maize, corn (Zea mays), crop, 140 g ai/ha
# Description: (§1) Seeds or nutlets of the desired test plant species were planted in Sun Gro Metro-Mix® 360 planting mixture, which typically has a pH of 6.0 to 6.8 and an organic matter content of about 30 percent, in plastic pots with a surface area of 64 square centimeters. When required to ensure good germination and healthy plants, a fungicide treatment and/or other chemical or physical treatment was applied. The plants were grown for 7-21 days in a greenhouse with an approximate 15 h photoperiod which was maintained at about 23-29° C. during the day and 22-28° C. during the night. Nutrients and water were added on a regular basis and supplemental lighting was provided with overhead metal halide 1000-Watt lamps as necessary. The plants were employed for testing when they reached the first or second true leaf stage.
# (§2) A weighed amount, determined by the highest rate to be tested, of each test compound was placed in a 25 mL glass vial and was dissolved in 4 mL of a 97:3 v/v mixture of acetone and DMSO to obtain concentrated stock solutions. […] The concentrated stock solutions obtained were diluted with 20 mL of an aqueous mixture containing acetone, water, isopropyl alcohol, DMSO, Atplus 411F crop oil concentrate, and Triton® X-155 surfactant in a 48.5:39:10:1.5:1.0:0.02 v/v ratio to obtain spray solutions containing the highest application rates. Additional application rates were obtained by serial dilution of 12 mL of the high rate solution into a solution containing 2 mL of 97:3 v/v mixture of acetone and DMSO and 10 mL of an aqueous mixture containing acetone, water, isopropyl alcohol, DMSO, Atplus 411F crop oil concentrate, and Triton X-155 surfactant in a 48.5:39:10:1.5:1.0:0.02 v/v ratio to obtain ½×, ¼×, ⅛× and 1/16× rates of the high rate. Compound requirements are based upon a 12 mL application volume at a rate of 187 liters per hectare (L/ha). Formulated compounds were applied to the plant material with an overhead Mandel track sprayer equipped with 8002E nozzles calibrated to deliver 187 L/ha over an application area of 0.503 square meters at a spray height of 18 inches (43 cm) above the average plant canopy height. Control plants were sprayed in the same manner with the solvent blank.
# (§3) The treated plants and control plants were placed in a greenhouse as described above and watered by subirrigation to prevent wash-off of the test compounds. After 14 days, the condition of the test plants as compared with that of the untreated plants was determined visually and scored on a scale of 0 to 100 percent where 0 corresponds to no injury and 100 corresponds to complete kill and presented as indicated in Table A. Some of the compounds tested, application rates employed, plant species tested, and results are given in Table 5.
row,SMILES,"Visual Growth Reduction (%) 14 Days After Application, ZEAMX"
1,"Nc1c(F)c(-c2ccc(Cl)c(F)c2Cl)nc(C(=O)O)c1Cl [Compound 16, 4-Amino-3-chloro-6-(2,4-dichloro-3-fluorophenyl)-5-fluoropicolinic acid]",B (85-94)

# System: Key Broadleaf Weed and Crop Species
# Test: Post-Emergent Test II (Table 5)
# Type: in vivo
# Conditions: Abutilon theophrasti, post-emergence, 336 h, ABUTH: velvetleaf (Abutilon theophrasti), application rate 70 (kg ai/ha; footnote: g ai/ha), read-out: Visual Growth Reduction (%) 14 Days After Application ABUTH
# Description: as §1, §2, §3
row,SMILES,pest or weed control at 70 g/ha [%]
1,"Nc1c(F)c(-c2ccc(Cl)c(F)c2Cl)nc(C(=O)O)c1Cl [Compound 16, 4-Amino-3-chloro-6-(2,4-dichloro-3-fluorophenyl)-5-fluoropicolinic acid]",85 to 94

# Same assay, conditions: Abutilon theophrasti, post-emergence, 336 h, ABUTH: velvetleaf (Abutilon theophrasti), application rate 140 (kg ai/ha; footnote: g ai/ha), read-out: Visual Growth Reduction (%) 14 Days After Application ABUTH
row,SMILES,pest or weed control at 140 g/ha [%]
1,"Nc1c(F)c(-c2ccc(Cl)c(F)c2Cl)nc(C(=O)O)c1Cl [Compound 16, 4-Amino-3-chloro-6-(2,4-dichloro-3-fluorophenyl)-5-fluoropicolinic acid]",95 to 100

# Same assay, conditions: Amaranthus retroflexus, post-emergence, 336 h, AMARE: redroot pigweed (Amaranthus retroflexus), application rate 70 (kg ai/ha; footnote: g ai/ha), read-out: Visual Growth Reduction (%) 14 Days After Application AMARE
row,SMILES,pest or weed control at 70 g/ha [%]
1,"Nc1c(F)c(-c2ccc(Cl)c(F)c2Cl)nc(C(=O)O)c1Cl [Compound 16, 4-Amino-3-chloro-6-(2,4-dichloro-3-fluorophenyl)-5-fluoropicolinic acid]",95 to 100

# Same assay, conditions: Amaranthus retroflexus, post-emergence, 336 h, AMARE: redroot pigweed (Amaranthus retroflexus), application rate 140 (kg ai/ha; footnote: g ai/ha), read-out: Visual Growth Reduction (%) 14 Days After Application AMARE
row,SMILES,pest or weed control at 140 g/ha [%]
1,"Nc1c(F)c(-c2ccc(Cl)c(F)c2Cl)nc(C(=O)O)c1Cl [Compound 16, 4-Amino-3-chloro-6-(2,4-dichloro-3-fluorophenyl)-5-fluoropicolinic acid]",95 to 100

# Same assay, conditions: Brassica napus, post-emergence, 336 h, BRSSS: oilseed rape, canola (Brassica napus), application rate 70 (kg ai/ha; footnote: g ai/ha), read-out: Visual Growth Reduction (%) 14 Days After Application BRSSS
row,SMILES,pest or weed control at 70 g/ha [%]
1,"Nc1c(F)c(-c2ccc(Cl)c(F)c2Cl)nc(C(=O)O)c1Cl [Compound 16, 4-Amino-3-chloro-6-(2,4-dichloro-3-fluorophenyl)-5-fluoropicolinic acid]",95 to 100

# Same assay, conditions: Brassica napus, post-emergence, 336 h, BRSSS: oilseed rape, canola (Brassica napus), application rate 140 (kg ai/ha; footnote: g ai/ha), read-out: Visual Growth Reduction (%) 14 Days After Application BRSSS
row,SMILES,pest or weed control at 140 g/ha [%]
1,"Nc1c(F)c(-c2ccc(Cl)c(F)c2Cl)nc(C(=O)O)c1Cl [Compound 16, 4-Amino-3-chloro-6-(2,4-dichloro-3-fluorophenyl)-5-fluoropicolinic acid]",95 to 100

# Same assay, conditions: Chenopodium album, post-emergence, 336 h, CHEAL: lambsquarters (Chenopodium album), application rate 70 (kg ai/ha; footnote: g ai/ha), read-out: Visual Growth Reduction (%) 14 Days After Application CHEAL
row,SMILES,pest or weed control at 70 g/ha [%]
1,"Nc1c(F)c(-c2ccc(Cl)c(F)c2Cl)nc(C(=O)O)c1Cl [Compound 16, 4-Amino-3-chloro-6-(2,4-dichloro-3-fluorophenyl)-5-fluoropicolinic acid]",95 to 100

# Same assay, conditions: Chenopodium album, post-emergence, 336 h, CHEAL: lambsquarters (Chenopodium album), application rate 140 (kg ai/ha; footnote: g ai/ha), read-out: Visual Growth Reduction (%) 14 Days After Application CHEAL
row,SMILES,pest or weed control at 140 g/ha [%]
1,"Nc1c(F)c(-c2ccc(Cl)c(F)c2Cl)nc(C(=O)O)c1Cl [Compound 16, 4-Amino-3-chloro-6-(2,4-dichloro-3-fluorophenyl)-5-fluoropicolinic acid]",95 to 100

# Same assay, conditions: Euphorbia heterophylla, post-emergence, 336 h, EPHHL: wild poinsettia (Euphorbia heterophylla), application rate 70 (kg ai/ha; footnote: g ai/ha), read-out: Visual Growth Reduction (%) 14 Days After Application EPHHL
row,SMILES,pest or weed control at 70 g/ha [%]
1,"Nc1c(F)c(-c2ccc(Cl)c(F)c2Cl)nc(C(=O)O)c1Cl [Compound 16, 4-Amino-3-chloro-6-(2,4-dichloro-3-fluorophenyl)-5-fluoropicolinic acid]",85 to 94

# Same assay, conditions: Euphorbia heterophylla, post-emergence, 336 h, EPHHL: wild poinsettia (Euphorbia heterophylla), application rate 140 (kg ai/ha; footnote: g ai/ha), read-out: Visual Growth Reduction (%) 14 Days After Application EPHHL
row,SMILES,pest or weed control at 140 g/ha [%]
1,"Nc1c(F)c(-c2ccc(Cl)c(F)c2Cl)nc(C(=O)O)c1Cl [Compound 16, 4-Amino-3-chloro-6-(2,4-dichloro-3-fluorophenyl)-5-fluoropicolinic acid]",95 to 100

# Same assay, conditions: Helianthus annuus, post-emergence, 336 h, HELAN: sunflower (Helianthus annuus), application rate 70 (kg ai/ha; footnote: g ai/ha), read-out: Visual Growth Reduction (%) 14 Days After Application HELAN
row,SMILES,pest or weed control at 70 g/ha [%]
1,"Nc1c(F)c(-c2ccc(Cl)c(F)c2Cl)nc(C(=O)O)c1Cl [Compound 16, 4-Amino-3-chloro-6-(2,4-dichloro-3-fluorophenyl)-5-fluoropicolinic acid]",95 to 100

# Same assay, conditions: Helianthus annuus, post-emergence, 336 h, HELAN: sunflower (Helianthus annuus), application rate 140 (kg ai/ha; footnote: g ai/ha), read-out: Visual Growth Reduction (%) 14 Days After Application HELAN
row,SMILES,pest or weed control at 140 g/ha [%]
1,"Nc1c(F)c(-c2ccc(Cl)c(F)c2Cl)nc(C(=O)O)c1Cl [Compound 16, 4-Amino-3-chloro-6-(2,4-dichloro-3-fluorophenyl)-5-fluoropicolinic acid]",95 to 100

# Same assay, conditions: Viola tricolor, post-emergence, 336 h, VIOTR: wild pansy (Viola tricolor), application rate 70 (kg ai/ha; footnote: g ai/ha), read-out: Visual Growth Reduction (%) 14 Days After Application VIOTR
row,SMILES,pest or weed control at 70 g/ha [%]
1,"Nc1c(F)c(-c2ccc(Cl)c(F)c2Cl)nc(C(=O)O)c1Cl [Compound 16, 4-Amino-3-chloro-6-(2,4-dichloro-3-fluorophenyl)-5-fluoropicolinic acid]",95 to 100

# Same assay, conditions: Viola tricolor, post-emergence, 336 h, VIOTR: wild pansy (Viola tricolor), application rate 140 (kg ai/ha; footnote: g ai/ha), read-out: Visual Growth Reduction (%) 14 Days After Application VIOTR
row,SMILES,pest or weed control at 140 g/ha [%]
1,"Nc1c(F)c(-c2ccc(Cl)c(F)c2Cl)nc(C(=O)O)c1Cl [Compound 16, 4-Amino-3-chloro-6-(2,4-dichloro-3-fluorophenyl)-5-fluoropicolinic acid]",95 to 100
